Experimental data: patent US11019820B2 (BASF SE, priority 2013, dated 2021)

Experiments:
Assay type in all cases: in vivo
Megoura viciae = assay: Vetch aphid (Megoura viciae) leaf disk test; settings: foliar, 120 h, read-out: mortality in comparison with untreated controls (aphid mortality)
Procedure: For evaluating control of vetch aphid (Megoura viciae) through contact or systemic means the test unit consisted of 24-well-microtiter plates containing broad bean leaf disks.
The compounds were formulated using a solution containing 75% v/v water and 25% v/v DMSO. Different concentrations of formulated compounds were sprayed onto the leaf disks at 2.5 μl, using a custom built micro atomizer, at two replications.
After application, the leaf disks were air-dried and 5-8 adult aphids placed on the leaf disks inside the microtiter plate wells. The aphids were then allowed to suck on the treated leaf disks and incubated at about 23±1° C. and about 50±5% relative humidity for 5 days. Aphid mortality and fecundity was then visually assessed.

Myzus persicae = assay: Green peach aphid (Myzus persicae) systemic artificial diet test; settings: 72 h, read-out: mortality in comparison with untreated controls (aphid mortality)
Description: For evaluating control of green peach aphid (Myzus persicae) through systemic means the test unit consisted of 96-well-microtiter plates containing liquid artificial diet under an artificial membrane.
The compounds were formulated using a solution containing 75% v/v water and 25% v/v DMSO. Different concentrations of formulated compounds were pipetted into the aphid diet, using a custom built pipetter, at two replications.
After application, 5-8 adult aphids were placed on the artificial membrane inside the microtiter plate wells. The aphids were then allowed to suck on the treated aphid diet and incubated at about 23±1° C. and about 50±5% relative humidity for 3 days. Aphid mortality and fecundity was then visually assessed.

Tetranychus spp = assay: Spider mite (Tetranychus spp) potted cotton plant spray test; settings: sprayed potted cotton plants, 72 hours after treatment, read-out: mortality in comparison with untreated controls
Procedure: The active compound is dissolved at the desired concentration in a mixture of 1:1 (vol:vol) distilled water:acetone. The test solution is prepared at the day of use. Potted cotton plants at two weeks of age were cleaned, air dried and inoculated with approximately 50 mites of various stages. The potted plants are sprayed after the pest population has been recorded. Percent mortality is recorded 72 hours after treatment.

Nilaparvata lugens = assay: Rice brown plant hopper (Nilaparvata lugens) rice seedling spray test; settings: 72 h, read-out: mortality in comparison with untreated controls
Procedure: (§1) Rice seedlings were cleaned and washed 24 hours before spraying. The active compounds were formulated in 50:50 acetone:water (vol:vol) and 0.1% vol/vol surfactant (EL 620) was added. Potted rice seedlings were sprayed with 5 ml test solution, air dried, placed in cages and inoculated with 10 adults. Treated rice plants were kept at about 28-29° C. and relative humidity of about 50-60%. Percent mortality was recorded after 72 hours.

Nephotettix virescens = assay: Rice green leafhopper (Nephotettix virescens) rice seedling spray test; settings: 72 h, read-out: mortality in comparison with untreated controls
Procedure: as §1, with “(vol:vol),” for “(vol:vol)”

Dichromothrips corbetti = assay: Orchid thrips (Dichromothrips corbetti) floral-immersion test; settings: 72 h, read-out: mortality in comparison with untreated controls
Procedure: Dichromothrips corbetti adults used for bioassay were obtained from a colony maintained continuously under laboratory conditions. For testing purposes, the test compound is diluted in a 1:1 mixture of acetone:water (vol:vol), plus 0.01% vol/vol Alkannuls® EL 620 surfactant.
Thrips potency of each compound was evaluated by using a floral-immersion technique. Plastic petri dishes were used as test arenas. All petals of individual, intact orchid flowers were dipped into treatment solution and allowed to dry. Treated flowers were placed into individual petri dishes along with about 20 adult thrips. The petri dishes were then covered with lids. All test arenas were held under continuous light and a temperature of about 28° C. for duration of the assay. After 3 days, the numbers of live thrips were counted on each flower, and along inner walls of each petri dish. The percent mortality was recorded 72 hours after treatment.

CC[n+]1c([O-])c(-c2ccccc2)c(=O)n2c1CCCC2c1ccc(Cl)nc1 (stereo not shown) [Compound C-9]
> 75%: mortality at 2500 ppm (Megoura viciae) | mortality at 2500 ppm (Myzus persicae) | mortality at 500 ppm (Tetranychus spp)

Cn1c2[n+](c([O-])c(-c3ccccc3)c1=O)[C@@H](c1cnc(Cl)s1)CC2 [Compound C-42]
> 75%: mortality at 500 ppm (Nilaparvata lugens) | mortality at 500 ppm (Nephotettix virescens) | mortality at 500 ppm (Tetranychus spp) | mortality at 500 ppm (Dichromothrips corbetti)
